# Legend:
# [1] = biological target: Dual specificity protein kinase CLK1 (Homo sapiens, UniProt P49759); test: Selectivity interaction (Kinase panel (Z-LYTE Assay)) EUB0001632a CLK1; details: at 10 µM
# [2] = biological target: T1, Tyrosine-protein kinase JAK3 (Homo sapiens, UniProt P52333); test: Selectivity interaction (Enyzmatic assay) EUB0000601a JAK3
# T1 sequence (P52333 whole entry): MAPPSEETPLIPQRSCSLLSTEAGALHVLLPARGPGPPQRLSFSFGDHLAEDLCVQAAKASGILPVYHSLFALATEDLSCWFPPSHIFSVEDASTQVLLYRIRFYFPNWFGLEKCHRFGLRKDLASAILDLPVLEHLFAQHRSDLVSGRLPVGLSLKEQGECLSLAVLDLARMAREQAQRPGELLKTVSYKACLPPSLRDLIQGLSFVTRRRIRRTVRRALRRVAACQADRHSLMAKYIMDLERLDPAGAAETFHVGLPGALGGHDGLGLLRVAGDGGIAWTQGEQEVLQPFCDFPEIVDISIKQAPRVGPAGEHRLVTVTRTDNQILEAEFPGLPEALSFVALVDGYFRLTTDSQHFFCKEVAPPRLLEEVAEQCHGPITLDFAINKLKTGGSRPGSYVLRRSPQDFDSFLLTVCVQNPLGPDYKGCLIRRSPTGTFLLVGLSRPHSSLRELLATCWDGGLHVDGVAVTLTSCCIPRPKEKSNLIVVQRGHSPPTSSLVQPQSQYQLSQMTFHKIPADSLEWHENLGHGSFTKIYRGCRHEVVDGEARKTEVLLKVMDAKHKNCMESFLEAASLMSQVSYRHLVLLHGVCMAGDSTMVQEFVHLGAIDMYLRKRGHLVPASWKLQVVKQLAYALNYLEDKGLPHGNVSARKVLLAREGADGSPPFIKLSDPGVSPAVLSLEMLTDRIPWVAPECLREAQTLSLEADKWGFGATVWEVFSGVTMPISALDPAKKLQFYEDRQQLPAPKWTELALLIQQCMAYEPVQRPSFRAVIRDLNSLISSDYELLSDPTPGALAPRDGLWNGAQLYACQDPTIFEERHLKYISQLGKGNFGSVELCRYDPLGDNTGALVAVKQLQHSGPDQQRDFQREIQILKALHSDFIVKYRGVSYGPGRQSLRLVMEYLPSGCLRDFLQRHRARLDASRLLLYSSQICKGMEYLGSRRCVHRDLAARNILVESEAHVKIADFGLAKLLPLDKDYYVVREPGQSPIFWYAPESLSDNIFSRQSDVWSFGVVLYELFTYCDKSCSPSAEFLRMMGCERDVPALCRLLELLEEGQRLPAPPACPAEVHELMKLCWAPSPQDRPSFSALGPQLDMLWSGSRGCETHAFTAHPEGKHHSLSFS
# [3] = biological target: T2, Tyrosine-protein kinase ZAP-70 (Homo sapiens) (UniProt P43403); test: Selectivity interaction (KinomeScan (DiscoverX)) EUB0000607a ZAP70; details: at 10 µM
# T2 sequence (whole entry): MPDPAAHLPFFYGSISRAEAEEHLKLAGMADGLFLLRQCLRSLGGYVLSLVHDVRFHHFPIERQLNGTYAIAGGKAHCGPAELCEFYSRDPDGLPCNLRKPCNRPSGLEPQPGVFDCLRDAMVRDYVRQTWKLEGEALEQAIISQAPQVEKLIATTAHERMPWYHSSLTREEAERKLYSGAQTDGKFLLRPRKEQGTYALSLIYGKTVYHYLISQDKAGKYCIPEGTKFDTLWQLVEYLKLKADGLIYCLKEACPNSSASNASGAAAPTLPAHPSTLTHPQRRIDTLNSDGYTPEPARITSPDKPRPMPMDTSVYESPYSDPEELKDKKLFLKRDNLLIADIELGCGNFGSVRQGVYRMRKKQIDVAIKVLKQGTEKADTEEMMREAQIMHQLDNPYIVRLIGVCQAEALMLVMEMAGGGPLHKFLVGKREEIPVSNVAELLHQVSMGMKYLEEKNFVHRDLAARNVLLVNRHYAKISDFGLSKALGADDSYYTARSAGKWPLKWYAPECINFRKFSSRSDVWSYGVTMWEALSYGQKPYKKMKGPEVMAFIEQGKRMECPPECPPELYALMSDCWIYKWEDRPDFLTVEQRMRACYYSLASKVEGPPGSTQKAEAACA
# [4] = biological target: T3, Ephrin type-A receptor 6 (Homo sapiens) (UniProt Q9UF33); test: Selectivity interaction (KinomeScan (DiscoverX)) EUB0000655a EPHA6; details: at 10 µM
# T3 sequence (whole entry): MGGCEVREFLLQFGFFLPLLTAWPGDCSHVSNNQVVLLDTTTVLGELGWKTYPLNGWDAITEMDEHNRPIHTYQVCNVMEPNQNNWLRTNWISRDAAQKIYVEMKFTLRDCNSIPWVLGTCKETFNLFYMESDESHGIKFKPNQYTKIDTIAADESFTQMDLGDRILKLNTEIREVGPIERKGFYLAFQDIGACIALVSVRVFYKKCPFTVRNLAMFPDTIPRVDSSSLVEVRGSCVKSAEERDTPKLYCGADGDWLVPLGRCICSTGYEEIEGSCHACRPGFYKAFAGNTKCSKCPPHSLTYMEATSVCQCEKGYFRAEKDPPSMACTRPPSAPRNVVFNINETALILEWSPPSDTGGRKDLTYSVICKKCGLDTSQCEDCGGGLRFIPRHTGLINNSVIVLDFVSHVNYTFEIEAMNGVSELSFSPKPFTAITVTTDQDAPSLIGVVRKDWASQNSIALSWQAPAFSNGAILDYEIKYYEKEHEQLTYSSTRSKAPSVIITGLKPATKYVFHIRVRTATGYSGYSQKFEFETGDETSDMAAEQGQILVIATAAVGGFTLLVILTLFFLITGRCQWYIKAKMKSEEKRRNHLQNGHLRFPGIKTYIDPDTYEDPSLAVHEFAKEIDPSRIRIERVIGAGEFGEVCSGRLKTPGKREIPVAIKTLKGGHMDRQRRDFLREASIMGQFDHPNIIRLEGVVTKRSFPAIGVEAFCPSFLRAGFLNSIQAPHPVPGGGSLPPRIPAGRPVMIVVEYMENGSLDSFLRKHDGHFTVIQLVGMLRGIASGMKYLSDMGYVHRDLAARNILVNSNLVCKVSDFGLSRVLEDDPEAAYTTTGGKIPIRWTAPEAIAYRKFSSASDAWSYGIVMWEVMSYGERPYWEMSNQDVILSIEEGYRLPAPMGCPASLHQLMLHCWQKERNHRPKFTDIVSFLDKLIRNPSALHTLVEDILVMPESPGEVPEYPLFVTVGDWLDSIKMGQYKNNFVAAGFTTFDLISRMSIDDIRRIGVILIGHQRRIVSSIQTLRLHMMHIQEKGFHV
# Dual specificity protein kinase CLK1, sequence (P49759 whole entry, looked up): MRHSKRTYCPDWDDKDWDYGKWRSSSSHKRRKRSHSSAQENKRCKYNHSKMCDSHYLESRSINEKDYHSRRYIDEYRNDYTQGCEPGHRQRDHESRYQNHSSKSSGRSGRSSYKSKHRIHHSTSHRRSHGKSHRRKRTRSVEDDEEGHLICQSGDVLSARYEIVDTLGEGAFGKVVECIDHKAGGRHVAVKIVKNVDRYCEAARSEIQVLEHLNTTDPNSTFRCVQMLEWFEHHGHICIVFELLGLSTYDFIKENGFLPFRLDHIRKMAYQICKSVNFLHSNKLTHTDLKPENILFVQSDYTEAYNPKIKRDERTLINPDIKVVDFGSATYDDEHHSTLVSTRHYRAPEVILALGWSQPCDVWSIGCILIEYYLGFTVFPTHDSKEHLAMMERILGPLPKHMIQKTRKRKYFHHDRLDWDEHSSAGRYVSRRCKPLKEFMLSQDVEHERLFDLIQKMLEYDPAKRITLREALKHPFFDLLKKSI
compound,measurement,setting,value
Cn1cc(-n2cnc3c(NCc4nc5cc(Cl)c(Cl)cc5[nH]4)nc(N4CCOCC4)nc32)cn1,% of control,[1],8.07%
CCc1cc(Nc2nccc(-c3c(-c4ccc(OC)c(C(=O)Nc5c(F)cccc5F)c4)nc4ccccn34)n2)c(OC)cc1N1CCC(N2CCN(S(C)(=O)=O)CC2)CC1,IC50,[2],> 10 µM
CNC(=O)Nc1ccc(-c2nc(N3CC4CCC(C3)O4)c3cnn(C4CCC5(CC4)OCCO5)c3n2)cc1,% of control,[3],83%
CN(C)CCOc1ccc(-c2nc(-c3ccncc3)c(-c3ccc4c(c3)CC/C4=N\O)[nH]2)cc1,% of control,[4],88%
